{"source": "patent US20080014278A1", "about": "“METAL-CONTAINING FORMULATIONS AND METHODS OF USE” (priority 2006, published 2008)", "key": {"Pseudomonas aeruginosa": {"system": "Pseudomonas aeruginosa", "assay": "MIC assay (microdilution)", "type": "cell-based"}, "Staphylococcus aureus": {"system": "Staphylococcus aureus", "assay": "MIC assay (microdilution)", "type": "cell-based", "settings": "lactate solutions, nanocrystalline silver: range for 12 samples"}, "[1]": {"system": "Staphylococcus epidermidis", "assay": "MIC assay (microdilution)", "type": "cell-based", "settings": "lactate solutions; S. epiderm (ATCC); nanocrystalline silver: range for 12 samples"}, "Streptococcus pyogenes": {"system": "Streptococcus pyogenes", "assay": "MIC assay (microdilution)", "type": "cell-based", "settings": "lactate solutions, nanocrystalline silver: range for 12 samples"}, "Streptococcus pneumoniae": {"system": "Streptococcus pneumoniae", "assay": "MIC assay (microdilution)", "type": "cell-based", "settings": "lactate solutions, nanocrystalline silver: range for 12 samples"}, "Escherichia coli": {"system": "Escherichia coli", "assay": "MIC assay (microdilution)", "type": "cell-based"}, "[2]": {"system": "Mycobacterium tuberculosis H37Ra", "type": "cell-based"}, "DNBS-induced colitis [3]": {"system": "DNBS-induced colitis", "assay": "DNBS-induced colitis in rat, macroscopic observations (body weight, total IBD score)", "type": "in vivo, Sprague-Dawley rats", "settings": "for total IBD score: vs placebo"}, "Enterobacter cloacae": {"system": "Enterobacter cloacae", "assay": "MIC assay (microdilution)", "type": "cell-based", "settings": "Ent. cloacae"}, "DNBS-induced colitis [4]": {"system": "DNBS-induced colitis", "assay": "DNBS-induced colitis in rat, colon histopathology", "type": "in vivo, Sprague-Dawley rats", "procedure": "Histopathology: A piece of colonic tissue at 2-4 cm proximal to the anus was excised and fixed in 10% formalin and the sections were stained with hematoxylin and eosin. The remaining length of the colonic tissues was stored at −80° C. for subsequent biochemical assays. The histology slides were examined by a veterinary pathologist who was blinded to the treatment groups. The extent of microscopic mucosal damage of the colon was scored on scale of 0-5 as described with slight modification: 0=normal histological appearance; 1=histological damage limited to surface epithelium, mild infiltration of the submucosa; 2=focal ulceration and cell disruption limited to mucosa, abnormal appearance of colonic wall, mild infiltration of inflammatory cells; 3=focal, transmural inflammation and ulceration, with mild to moderate infiltration of inflammatory cells; 4=Extensive transmural ulceration and inflammation bordered by areas of normal mucosa, moderate infiltration of inflammatory cells; 5=extensive transmural ulceration and inflammation involving entire section from epithelium to serosa, severe infiltration of inflammatory cells.\nStatistical Analysis: The results are expressed as the mean ±SE. […] The data were calculated with the aid of Instat Graph Pad Software. […]"}, "IL-1β": {"system": "IL-1β", "assay": "Immunohistochemistry of colonic tissue", "type": "in vivo, rat", "settings": "five days oral treatment", "procedure": "(§1) Immunohistochemistry: A Universal Streptavidin/Biotin detection system (Thermo Shandon, Pittsburgh, Pa.) was used for immunohistochemical staining of formalin fixed, paraffin embedded biopsies of the colon. After dewaxing, and hydration, sections were treated with protein blocking agent to reduce non-specific binding of antibodies. The tissues were then incubated with rabbit anti-rat TNF-α, or mouse anti-rat IL-12 p70 antibodies (Biosource International, Inc, Camarillo, Calif.); rabbit anti-rat IL-1β (Serotec, Raleigh, N.C.) or rabbit anti-rat MMP-9 antibody (Chemicon International, Telecuma, Calif.) in 1% bovine serum albumin in phosphate buffered saline. Incubations with secondary antibodies, streptavidin/biotin, and chromogenic detection of peroxidase were performed according to the manufacturer's protocol. Sections were counterstained, dehydrated, mounted and examined. The intensity of the immuno-peroxidase staining was graded as described previously. Expression of cytokines was graded as: 0, no staining in the section; 1, less than 25% of the section; 2, 25-50% of the section; 3, 50-75% of the section; 4, >75% of the section with significant staining."}, "MMP-9": {"system": "MMP-9", "assay": "Immunohistochemistry of colonic tissue", "type": "in vivo, rat", "settings": "vs placebo and no treatment", "procedure": "as §1"}, "TNF-α": {"system": "TNF-α", "assay": "Immunohistochemistry of colonic tissue", "type": "in vivo, rat", "settings": "five days oral treatment", "procedure": "as §1"}}, "data": [{"compound": "Benzalkonium chloride [BAC]", "values": [{"measurement": "MIC", "setting": "Pseudomonas aeruginosa; P. aeruginosa isolate NP220 (BAC-sensitive)", "result": 63, "unit": "µg/mL"}, {"measurement": "MIC", "setting": "Pseudomonas aeruginosa; P. aeruginosa isolate NP221 (BAC-resistant)", "result": 4000, "unit": "µg/mL"}, {"measurement": "MIC", "setting": "Pseudomonas aeruginosa; P. aeruginosa isolate NP222 (BAC-sensitive)", "result": 63, "unit": "µg/mL"}]}, {"compound": "silver oxide [Ag2O]", "values": [{"measurement": "MIC", "setting": "Staphylococcus aureus; S. aureus (ATCC)", "result": 3, "unit": "µg/mL"}, {"measurement": "MIC", "setting": "Staphylococcus aureus; S. aureus (clin.)", "result": 6, "unit": "µg/mL"}, {"measurement": "MIC", "setting": "[1]", "result": 2, "unit": "µg/mL"}, {"measurement": "MIC", "setting": "Streptococcus pyogenes; S. pyog (clin. 303)", "result": 2, "unit": "µg/mL"}, {"measurement": "MIC", "setting": "Streptococcus pyogenes; S. pyog (clin. 304)", "result": 3, "unit": "µg/mL"}, {"measurement": "MIC", "setting": "Streptococcus pneumoniae; S. pneumo (clin 314)", "result": 3, "unit": "µg/mL"}, {"measurement": "MIC", "setting": "Streptococcus pneumoniae; S. pneumo (clin 315)", "result": 2, "unit": "µg/mL"}, {"measurement": "MIC", "setting": "Pseudomonas aeruginosa; lactate solutions, P. aerug (ATCC), nanocrystalline silver: range for 12 samples", "result": 0.8, "unit": "µg/mL"}, {"measurement": "MIC", "setting": "Pseudomonas aeruginosa; lactate solutions, P. aerug. (clin.), nanocrystalline silver: range for 12 samples", "result": 2, "unit": "µg/mL"}, {"measurement": "MIC", "setting": "Escherichia coli; lactate solutions, E. coli (ATCC), nanocrystalline silver: range for 12 samples", "result": 0.8, "unit": "µg/mL"}, {"measurement": "MIC", "setting": "[2]", "result": 2.5, "unit": "μg/ml silver"}, {"measurement": "total IBD score", "setting": "DNBS-induced colitis [3]; Example 27, 0.25% homogenized, intracolonic, five days", "result": "unable to show significant reduction of total IBD score"}, {"measurement": "total IBD score", "setting": "DNBS-induced colitis [3]; Example 27, 0.5% homogenized, intracolonic, five days", "result": "unable to show significant reduction of total IBD score"}, {"measurement": "total IBD score", "setting": "DNBS-induced colitis [3]; Example 27, 0.5% sonicated nanodispersion, 250 μl intracolonically once a day for five days", "result": "significantly reduced the total IBD score"}, {"measurement": "total IBD score", "setting": "DNBS-induced colitis [3]; Example 28, 0.05% nanodispersion, intracolonic, five days", "result": "but not 0.15% and 0.05%"}, {"measurement": "total IBD score", "setting": "DNBS-induced colitis [3]; Example 28, 0.15% nanodispersion, intracolonic, five days", "result": "but not 0.15% and 0.05%"}, {"measurement": "total IBD score", "setting": "DNBS-induced colitis [3]; Example 28, 0.5% sonicated nanodispersion, 250 μl intracolonically once a day for five days", "result": "significantly reduced the total IBD score"}, {"measurement": "total IBD score", "setting": "DNBS-induced colitis [3]; Example 28, 1.5% nanodispersion, intracolonic, five days", "result": "significantly reduced the total IBD score"}]}, {"compound": "OO", "note": "[Sample H2O2, hydrogen peroxide]", "values": [{"measurement": "MIC", "setting": "Enterobacter cloacae; SOD/catalase +", "result": ">500", "unit": "µg/mL"}, {"measurement": "MIC", "setting": "Enterobacter cloacae; SOD/catalase −", "result": 63, "unit": "µg/mL"}, {"measurement": "MIC", "setting": "Escherichia coli; E. coli, SOD/catalase +", "result": ">500", "unit": "µg/mL"}, {"measurement": "MIC", "setting": "Escherichia coli; E. coli, SOD/catalase −", "result": 31, "unit": "µg/mL"}]}, {"compound": "O=C(O)c1cc(/N=N/c2ccc(S(=O)(=O)Nc3ccccn3)cc2)ccc1O", "note": "[sulfasalazine, salicylazosulfapyridine]", "values": [{"measurement": "body weight", "setting": "DNBS-induced colitis [3]; DNBS colitis rats, intracolonic or oral treatment", "result": "started gaining body weight after one day of treatment"}, {"measurement": "total IBD score", "setting": "DNBS-induced colitis [3]; Example 27, 100 mg/kg", "result": "significantly reduced total IBD score"}, {"measurement": "total IBD score", "setting": "DNBS-induced colitis [3]; Example 28, 100 mg/kg", "result": "significantly reduced total IBD score"}, {"measurement": "histopathological inflammation score", "setting": "DNBS-induced colitis [4]; oral 100 mg/kg, vs placebo and untreated", "result": "significantly reduced the histopathological inflammation"}, {"measurement": "colon sections (hematoxylin and eosin)", "setting": "DNBS-induced colitis [4]; oral, 40 mg/kg nanocrystalline silver, 100 mg/kg sulfasalazine", "result": "healed mucosa and few residual inflammatory infiltrate"}, {"measurement": "expression of IL-1β (immunohistochemical staining)", "setting": "IL-1β", "result": "significantly reduced the expression"}, {"measurement": "expression of MMP-9 (immunohistochemical staining)", "setting": "MMP-9", "result": "significantly reduced the expression of MMP-9"}, {"measurement": "expression of TNF-α (immunohistochemical staining)", "setting": "TNF-α", "result": "significantly reduced the expression"}]}]}
